Source: patent US20260240820A1, “METHOD FOR CONTROLLING MEMBRANE POTENTIAL-DEPENDENT ION CHANNEL THROUGH TYPE I TASTE RECEPTORS (T1RS)” (ION CHAT RESEARCH CORPORATE, priority 2022, published 2026)
Entries after “also recorded” stand apart in the source; their conditions may differ.

Assays:
[1] = test system: Nav1.5 in T1R3-silenced HEK cells; assay: VGSC current in HEK Nav1.5 cells with silenced T1R3; type: cell-based, human
Source text: The miRNAs Oligo (Thermofisher) used for silencing were annealed to form double-stranded DNA, which was then linked to the miR RNAi Expression Vector using T4 DNA ligase to create the knockdown vector. Specifically, the procedure followed the miR RNAi Expression Vector Kit manual (BLOCK-i™ Pol II miR RNAi Expression Vector Kit with EmGFP (Catalog number: K493600)).
Since Aβ25-35 peptide produced similar effects (enhancing VGSC activity, lowering the excitability threshold) as glutamine, it was considered that Aβ25-35 peptide might also act on T1R2/T1R3 receptors like glutamine. Therefore, in this implementation example, we used HEK-Nav1.5 cells with silenced T1R3 and compared the effect of Aβ25-35 peptide on VGSC with that in control HEK-Nav1.5 cells.
To strengthen these findings, we conducted similar experiments using HEK Nav1.5 cells in which T1R3 expression was silenced (FIG. 22). We measured VGSC currents in T1R3-silenced HEK Nav1.5 cells, applying stimuli every 8 seconds.

[2] = test system: Nav1.1; assay: Patch-clamp recording of VGSC current in HEK (Nav1.1) cells; type: cell-based, human
Source text: (§1) The cells used in the previous (18-1) experiment were cardiac-type VGSC cells. In this experiment, HEK (Nav1.1) and HEK (Nav1.6) cells, which are considered neuronal VGSC cells, were created. The effects of four peptides—Aβ25-35, Aβ1-38, Aβ1-40, and Aβ1-42—were examined using the same experimental protocol as in (18-1).

[3] = test system: endogenous T1R GPCR of HEK cells; assay: Intracellular calcium (Cal-520) in HEK cells stably expressing Nav1.1 with endogenous T1R GPCR; type: cell-based, human; details: 10 nM then 20 nM for Aβ1-40 and Aβ1-42
Protocol: Specifically, experiments were conducted as follows using HEK cells stably expressing Nav1.1 (FIG. 45). The calcium-sensitive reagent (Cal-520, AAT Bioquest) was incubated at 37° C. for 60 minutes, followed by incubation at room temperature for 30 minutes, and then changes in intracellular calcium were measured using a fluorescence microscope. […] Initially, 10 nM, followed by 20 nM of Aβ1-40 was applied after 5 minutes (arrow). […] A total of 6 cell groups from two independent experiments were measured, averaged by the maximum fluorescence response value, and the mean and standard error (stderr) were calculated and plotted. […] 10 nM, followed by 20 nM of Aβ1-42 was applied after 5 minutes (arrow). […] A total of 12 cell groups from two independent experiments were measured, averaged by the minimum fluorescence response value, and the mean and standard error (stderr) were calculated and plotted. Similar to the experimental results using the patch-clamp method when Aβ peptide was applied to Nav1.5, it was confirmed from intracellular calcium measurements that the effects of Aβ1-40 and Aβ1-42 were different.

[4] = test system: Nav1.6; assay: Patch-clamp recording of VGSC current in HEK (Nav1.6) cells; type: cell-based, human
Source text: as §1, with “(18-1). […]” for “(18-1).”

[5] = test system: Nav1.5; assay: Patch-clamp (voltage clamp) recording of VGSC current in HEK cells stably expressing Nav1.5

## Aβ1-38: amyloid β peptide (Peptide Institute), Sequence No. 2
[1]
  Effect on VGSC in T1R3-silenced cells: is lost
[2]
  Effect on VGSC current: VGSC enhancement
[3]
  Change in intracellular calcium: an increase in intracellular calcium was observed
[4]
  Effect on VGSC current: VGSC enhancement
[5]
  Effect on VGSC inactivation: delayed inactivation effect
  Shift of steady-state inactivation (S-S) curve of VGSC: shifted to the right; also recorded: shifting to the depolarizing side
  VGSC current from prepulse/holding potential −80 mV: enhancing currents; also recorded: significantly amplified
  VGSC current from prepulse/holding potential −120 mV: decreased; also recorded: slightly decreased
